A word on the viability: it is a read-out of living cells in per cent, often relative to untreated cells.

A short description of this data set: in vitro. The note with it: human, hela cells, % viability.
On to `O=C(Nc1ccc2[nH]ccc2c1)c1ccccc1Nc1cccc(C(F)(F)F)c1` [CBK149583], for which the viability at 28.5 h, 10 µM came out at 105%.

In the case of `CCC12CN3CC(CC)(CN(C1)C3c1ccc([N+](=O)[O-])cc1)C2=O` (centres unmarked) [CBK263689], the viability at 28.5 h, 10 µM was 108%.

For `O=C(Nc1ccccn1)c1nccnc1-c1ccc(COc2ccccc2)cc1` [CBK050835], the viability at 28.5 h, 10 µM stood at 86.1%.

Regarding `COc1nccnc1N1CCN(CCOc2ccccc2)CC1` [CBK084230], the viability at 28.5 h, 10 µM was found to be 94.1%.

Take `COC(=O)[C@H]1CN(C(=O)CN2CCCC2=O)C[C@@H]1c1ccc(F)cc1` [CBK283507]: the viability at 28.5 h, 10 µM was 93.3%.

For `CCCN1CC(NS(=O)(=O)c2cc(OC)c(Cl)cc2OC)CC1=O` (centres unmarked) [CBK307581], the viability at 28.5 h, 10 µM was 96.7%.

Turning to `O=[N+]([O-])c1ccccc1S(=O)(=O)N1CCN(c2ccnc3cc(Cl)ccc23)CC1` [CBK267271], the viability at 28.5 h, 10 µM was determined as 92.1%.

Regarding `O=C(NCc1ccccc1)C(Cc1ccc([N+](=O)[O-])cc1)N1C(=O)c2ccccc2C1=O` (centres unmarked) [CBK261279], the viability at 28.5 h, 10 µM came out at 95.9%.

On to `O=C(NC(NC1CCS(=O)(=O)C1)C(Cl)(Cl)Cl)c1ccc(Br)cc1` (centres unmarked) [CBK261091], for which the viability at 28.5 h, 10 µM stood at 98.2%.

In the case of `CCCC(=O)Nc1cccnc1N1CCNCC1` [CBK004732T], the viability at 28.5 h, 10 µM is 94%.

In the case of `CCOC(=O)c1ncoc1-c1ccc(Cl)cc1Cl` [CBK020578], the viability at 28.5 h, 10 µM is 90.2%.

Regarding `CC(NC(=O)C(C)(C)C)c1nc(-c2cccnc2)n[nH]1` (centres unmarked) [CBK104007], the viability at 28.5 h, 10 µM turned out to be 94.2%.

As to `CCNc1cc(-c2ccc(CC(C)C)cc2)ncn1` [CBK090884], the viability at 28.5 h, 10 µM was 102%.

`O=C(CSc1nnc(-c2ccccc2)n1C1CCCCC1)Nc1ccc(Cl)cc1Cl` [CBK267424]: the viability at 28.5 h, 10 µM came out at 100%.

For `COc1cccc(CN(Cc2ncc[nH]2)Cc2ccco2)c1` [CBK282496], the viability at 28.5 h, 10 µM was 98.7%.

As for `Cc1ccc(NC(=O)c2cnc3ccccc3c2)c(C)n1` [CBK200290], the viability at 28.5 h, 10 µM came to 99.1%.

Consider `COc1ccc(CNC(=O)[C@H]2C=CCN2C(=O)c2ccco2)cc1` [CBK284321], for which the viability at 28.5 h, 10 µM stood at 71.9%.

Regarding `CCOC(=O)N1CCC(NS(=O)(=O)c2ccc(F)cc2)CC1` [CBK045455], the viability at 28.5 h, 10 µM amounted to 95.1%.

In the case of `Cc1cc(Sc2ncnc(N)c2[N+](=O)[O-])ncn1` [CBK267235], the viability at 28.5 h, 10 µM worked out at 36.7%.

For `CCn1c(CN(C)Cc2cc(C)[nH]n2)nc2ccccc21` [CBK282120], the viability at 28.5 h, 10 µM is 110%.

Consider `CC(C)[C@H]1N=C2C=C(C(C)(C)C)ON2[C@H]2[C@H](O)[C@H](O)C[C@H]21` [CBK303234], for which the viability at 28.5 h, 10 µM is 90.1%.

Take `O=C(/C=C/c1ccccc1)Oc1cccc(NC(=O)C2CC(=O)N(c3ccccc3)C2)c1` (centres unmarked) [CBK264330]: the viability at 28.5 h, 10 µM is 109%.

On to `O=C(c1cc(F)c(F)cc1F)N1CCC2(CCN(CCN3CCOCC3)C2)C1` (centres unmarked) [CBK132145C], for which the viability at 28.5 h, 10 µM was found to be 102%.

For the compound `S=C(Nc1nc2c(s1)CCCC2)NC1CC1` [CBK288425], the viability at 28.5 h, 10 µM was 90.1%.

Consider `COc1ccnc(N2CCCN(Cc3ncc(Cl)n3C)CC2)n1` [CBK305152], for which the viability at 28.5 h, 10 µM came out at 111%.

Turning to `CCCc1nnc([C@H]2CCN(Cc3ccc(S(C)(=O)=O)cc3)C2)o1` [CBK289402], the viability at 28.5 h, 10 µM is 100%.

Regarding `FC(F)(F)c1nc2ccccc2[nH]1` [CBK028224], the viability at 28.5 h, 10 µM turned out to be 84.5%.

On to `CN(C)S(=O)(=O)c1ccc(C(=O)Nc2ccccc2O)cc1` [CBK267809], for which the viability at 28.5 h, 10 µM came out at 94.1%.

With `O=C(Nc1ccc(C(=O)N2CCOCC2)cc1)c1cc(-c2cccnc2)nc2ccc(Cl)cc12` [CBK267725], the viability at 28.5 h, 10 µM is 93%.

Turning to `Cc1nccn1CCCC(=O)NCC1(c2ccccc2F)CCCC1` [CBK281370], the viability at 28.5 h, 10 µM amounted to 109%.

With `CNCCC(Sc1ccccn1)c1ccccc1` (centres unmarked) [CBK021724C], the viability at 28.5 h, 10 µM stood at 93.5%.

As for `O=C(NC1CCCCC1)c1ccccc1NC(=O)C1CCCCC1C(=O)O` (centres unmarked) [CBK267675], the viability at 28.5 h, 10 µM turned out to be 97%.

The values are drawn from article PMC12040169 (PLOS Biology, 2025).
